The test system of one test is A549 cells. The test can be described thus: Proliferation Assay (A549 viability, Cell Titer Fluor, 72 hours). The format is cell-based. The settings on record: Homo sapiens, A549, 72 h. On the procedure: A549 cells were routinely maintained in RPMI 1640 media (Gibco catalog number 11875-093) supplemented with 10% dialyzed fetal bovine serum using a humidified incubator (37° C., 5% CO2 and ambient O2). In preparation for the viability assay, cells were inoculated into 384-well black CulturPlates (Perkin Elmer) at a density of 1000 cells/well in a volume of 40 uL. Following a 24-hour incubation at 37° C., 5% CO2 and ambient O2, cells were treated with compound (10 uL) in a final DMSO concentration of 0.5% (v/v). The microplates were then incubated for 72 hours (37° C., 5% CO2 and ambient O2). Cell Titer Fluor (Promega) was subsequently added (10 uL of 6× reagent) and mixed for 15 minutes at room temperature. The plates were then incubated for 30 minutes (37° C., 5% CO2 and ambient O2) and fluorescence was subsequently read on the Perkin Elmer Envision plate reader. IC50 values were calculated using a four-parameter logistic curve fit.
Non-limiting examples include the following compounds and pharmaceutically acceptable salts thereof. […] “ND” indicates no data.

The target of test [1] is purified recombinant human GAC (GLS1) (Homo sapiens (Human), UniProt O94925). As to the kind of experiment: GLS1 Enzymatic Activity Assay (dual-coupled enzymatic assay, resorufin/Amplex UltraRed readout).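 Also: glutamate from GAC coupled via glutamate oxidase and peroxidase to resorufin, read as fluorescence (ex 530, em 590 nm) kinetically or at 20 min, four-parameter logistic IC50 fit.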 Format: biochemical.

Molecules are shown by their SMILES. pEC50, pIC50: −log10 of the molar value.

purified recombinant human GAC (GLS1), sequence (O94925 other isoform, or with tags, fused parts or gaps): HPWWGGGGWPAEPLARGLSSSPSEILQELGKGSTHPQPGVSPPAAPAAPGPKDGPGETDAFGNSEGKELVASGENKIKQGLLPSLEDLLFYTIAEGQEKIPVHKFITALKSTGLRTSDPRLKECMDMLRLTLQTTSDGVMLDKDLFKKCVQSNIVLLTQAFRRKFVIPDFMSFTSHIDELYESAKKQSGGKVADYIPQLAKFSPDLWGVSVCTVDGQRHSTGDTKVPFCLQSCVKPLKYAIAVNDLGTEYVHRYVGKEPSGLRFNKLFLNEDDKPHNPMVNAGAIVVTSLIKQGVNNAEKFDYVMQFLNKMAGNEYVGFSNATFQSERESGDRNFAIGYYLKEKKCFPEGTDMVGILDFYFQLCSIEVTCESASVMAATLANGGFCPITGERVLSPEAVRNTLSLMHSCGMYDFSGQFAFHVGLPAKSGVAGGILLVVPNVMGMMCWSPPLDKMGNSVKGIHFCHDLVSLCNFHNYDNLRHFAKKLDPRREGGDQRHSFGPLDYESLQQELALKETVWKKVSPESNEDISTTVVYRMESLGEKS

For `O=C(Cc1ccccc1)Nc1ccc(CCCCn2cc(C(=O)NCc3ccccc3)nn2)nn1` [Example 5, N-Benzyl-1-(4-(6-(2-phenylacetamido)pyridazin-3-yl)butyl)-1H-1,2,3-triazole-4-carboxamide], the pEC50 with A549 cells is over 7.00. The same measure, in the same setting: the figure for `O=C(NCc1ccccc1)c1cn(CCCCc2nnc(C(=O)NCc3cccc(OC(F)(F)F)c3)s2)nn1` [Example 39, 5-{4-[4-(benzylcarbamoyl)-1H-1,2,3-triazol-1-yl]butyl}-N-{[3-(trifluoromethoxy)phenyl]methyl}-1,3,4-thiadiazole-2-carboxamide] is 6.30 to 7.00; for `CC(C)NC(=O)c1nnc(CCCCn2cc(C(=O)NCc3cccc(OC(F)(F)F)c3)nn2)s1` [Example 43, N-(propan-2-yl)-5-{4-[4-({[3-(trifluoromethoxy)phenyl]methyl}carbamoyl)-1H-1,2,3-triazol-1-yl]butyl}-1,3,4-thiadiazole-2-carboxamide] it is 6.30 to 7.00. On to `CC(C)CNC(=O)c1nnc(CCCCn2cc(C(=O)NCc3cccc(OC(F)(F)F)c3)nn2)s1` [Example 44, N-(2-methylpropyl)-5-{4-[4-({[3-(trifluoromethoxy)phenyl]methyl}carbamoyl)-1H-1,2,3-triazol-1-yl]butyl}-1,3,4-thiadiazole-2-carboxamide], for which the pEC50 in the test on A549 cells is 6.30 to 7.00. Turning to `O=C(NCc1cc(C2CC2)ccn1)c1cn(CCC(F)Cn2cc(C(=O)NCc3cccc(C4CC4)c3)nn2)nn1` (stereo not drawn) [Example 134, 1-[4-(4-{[(3-cyclopropylphenyl)methyl]carbamoyl}-1H-1,2,3-triazol-1-yl)-3-fluorobutyl]-N-[(4-cyclopropylpyridin-2-yl)methyl]-1H-1,2,3-triazole-4-carboxamide], the pEC50 in the test on A549 cells was over 7.00. The same measure, in the same setting: the figure for `CNC(=O)c1cn(CCCCc2ccc(NC(=O)Cc3cccc(OC(F)(F)F)c3)nn2)nn1` [Example 157, N-methyl-1-(4-(6-(2-(3-(trifluoromethoxy)phenyl)acetamido)pyridazin-3-yl)butyl)-1H-1,2,3-triazole-4-carboxamide] is 6.30 to 7.00. Still for that read-out and setting: the figure for `CNC(=O)c1cn(CCCCc2ccc(NC(=O)Cc3ccccn3)nn2)nn1` [Example 167, N-methyl-1-(4-{6-[2-(pyridin-2-yl)acetamido]pyridazin-3-yl}butyl)-1H-1,2,3-triazole-4-carboxamide] is 6.30 to 7.00. Same read-out and setting: the figure for `O=C(Cc1ccccn1)Nc1ccc(CCCCn2cc(C(=O)NCc3cccc(OC(F)(F)F)c3)nn2)nn1` [Example 169, 1-(4-{6-[2-(pyridin-2-yl)acetamido]pyridazin-3-yl}butyl)-N-{[3-(trifluoromethoxy)phenyl]methyl}-1H-1,2,3-triazole-4-carboxamide] is over 7.00; for `CNC(=O)c1cn(CCCCc2ccc(NC(=O)Cc3cc(C4CC4)ccn3)nn2)nn1` [Example 190, 1-(4-{6-[2-(4-cyclopropylpyridin-2-yl)acetamido]pyridazin-3-yl}butyl)-N-methyl-1H-1,2,3-triazole-4-carboxamide] it is 6.30 to 7.00. Take `CNC(=O)c1cn(CCCCc2ccc(NC(=O)Cc3cc(Cl)ccn3)nn2)nn1` [Example 191, 1-(4-{6-[2-(4-chloropyridin-2-yl)acetamido]pyridazin-3-yl}butyl)-N-methyl-1H-1,2,3-triazole-4-carboxamide]: the pEC50 with A549 cells is 6.30 to 7.00. Still for that read-out and setting: in the case of `CNC(=O)c1cn(CCCCc2ccc(NC(=O)Cc3cc(-c4cccc(OC(F)(F)F)c4)ccn3)nn2)nn1` [Example 192, N-methyl-1-(4-(6-(2-(4-(3-(trifluoromethoxy)phenyl)pyridin-2-yl)acetamido)pyridazin-3-yl)butyl)-1H-1,2,3-triazole-4-carboxamide] it was over 7.00; in that of `CNC(=O)c1cn(CCCCc2ccc(NC(=O)Cc3cc(Br)ccn3)nn2)nn1` [Example 200, 1-(4-(6-(2-(4-bromopyridin-2-yl)acetamido)pyridazin-3-yl)butyl)-N-methyl-1H-1,2,3-triazole-4-carboxamide], 6.30 to 7.00. In turn, `CNC(=O)c1cn(CCCCc2ccc(NC(=O)Cc3cncc(OC4CC(F)(F)C4)c3)nn2)nn1` [Example 202, 1-(4-(6-(2-(5-(3,3-difluorocyclobutoxy)pyridin-3-yl)acetamido)pyridazin-3-yl)butyl)-N-methyl-1H-1,2,3-triazole-4-carboxamide] showed a pEC50 with A549 cells of 6.30 to 7.00. On the same count and under the same terms, in the case of `O=C(Cc1ccccn1)Nc1ccc(CCCCn2cc(C(=O)NCc3cc(C(F)(F)F)ccn3)nn2)nn1` [Example 203, 1-(4-(6-(2-(pyridin-2-yl)acetamido)pyridazin-3-yl)butyl)-N-((4-(trifluoromethyl)pyridin-2-yl)methyl)-1H-1,2,3-triazole-4-carboxamide] it was over 7.00.

`O=C(CN1CCC(F)(F)C1)Nc1cn(CCCCn2cc(C(=O)NCc3ccccn3)nn2)nn1` [Example 325, 1-(4-{4-[2-(3,3-difluoropyrrolidin-1-yl)acetamido]-1H-1,2,3-triazol-1-yl}butyl)-N-(pyridin-2-ylmethyl)-1H-1,2,3-triazole-4-carboxamide]: the pIC50 in test [1] is 5.30 to 6.30. On the same count and under the same terms, in the case of `O=C(CN1CCC(F)(F)CC1)Nc1cn(CCCCn2cc(C(=O)NCc3ccccn3)nn2)nn1` [Example 326, 1-(4-{4-[2-(4,4-difluoropiperidin-1-yl)acetamido]-1H-1,2,3-triazol-1-yl}butyl)-N-(pyridin-2-ylmethyl)-1H-1,2,3-triazole-4-carboxamide] it was 5.30 to 6.30; in that of `O=C(Cc1cccc(OC(F)(F)F)c1)Nc1cn(CCCCn2cc(C(=O)NCc3cc(OC(F)(F)F)ccc3F)nn2)nn1` [Example 333, N-{[2-fluoro-5-(trifluoromethoxy)phenyl]methyl}-1-[4-(4-{2-[3-(trifluoromethoxy)phenyl]acetamido}-1H-1,2,3-triazol-1-yl)butyl]-1H-1,2,3-triazole-4-carboxamide], 5.30 to 6.30.

As to `Cc1ccc(CNC(=O)c2cn(CCCCn3cc(NC(=O)CN4CC(F)C4)nn3)nn2)cn1` [Example 348, 1-(4-{4-[2-(3-fluoroazetidin-1-yl)acetamido]-1H-1,2,3-triazol-1-yl}butyl)-N-[(6-methylpyridin-3-yl)methyl]-1H-1,2,3-triazole-4-carboxamide], in test [1], the pIC50 was 5.30 to 6.30. Still for that read-out and setting: in the case of `O=C(CN1CC(F)C1)Nc1cn(CCCCn2cc(C(=O)NCc3cc(Cl)ccc3F)nn2)nn1` [Example 349, N-[(5-chloro-2-fluorophenyl)methyl]-1-(4-{4-[2-(3-fluoroazetidin-1-yl)acetamido]-1H-1,2,3-triazol-1-yl}butyl)-1H-1,2,3-triazole-4-carboxamide] it was 6.30 to 7.00; in that of `Cc1ccc(CNC(=O)c2cn(CCCCn3cc(NC(=O)CN4CC(F)(F)C4)nn3)nn2)cn1` [Example 351, 1-(4-{4-[2-(3,3-difluoroazetidin-1-yl)acetamido]-1H-1,2,3-triazol-1-yl}butyl)-N-[(6-methylpyridin-3-yl)methyl]-1H-1,2,3-triazole-4-carboxamide], 5.30 to 6.30; in that of `Cc1ccc(CNC(=O)c2cn(CCCCn3cc(NC(=O)CN4CCC(F)(F)C4)nn3)nn2)cn1` [Example 354, 1-(4-{4-[2-(3,3-difluoropyrrolidin-1-yl)acetamido]-1H-1,2,3-triazol-1-yl}butyl)-N-[(6-methylpyridin-3-yl)methyl]-1H-1,2,3-triazole-4-carboxamide], 5.30 to 6.30. Consider `O=C(CN1CCC(F)(F)C1)Nc1cn(CCCCn2cc(C(=O)NCc3ncccc3F)nn2)nn1` [Example 357, 1-(4-{4-[2-(3,3-difluoropyrrolidin-1-yl)acetamido]-1H-1,2,3-triazol-1-yl}butyl)-N-[(3-fluoropyridin-2-yl)methyl]-1H-1,2,3-triazole-4-carboxamide], for which the pIC50 in test [1] is 5.30 to 6.30. Still for that read-out and setting: in the case of `Cc1ccc(CNC(=O)c2cn(CCCCn3cc(NC(=O)CN4CCC(F)(F)CC4)nn3)nn2)cn1` [Example 358, 1-(4-{4-[2-(4,4-difluoropiperidin-1-yl)acetamido]-1H-1,2,3-triazol-1-yl}butyl)-N-[(6-methylpyridin-3-yl)methyl]-1H-1,2,3-triazole-4-carboxamide] it was 5.30 to 6.30; in that of `O=C(CN1CCC(F)(F)CC1)Nc1cn(CCCCn2cc(C(=O)NCc3ncccc3F)nn2)nn1` [Example 361, 1-(4-{4-[2-(4,4-difluoropiperidin-1-yl)acetamido]-1H-1,2,3-triazol-1-yl}butyl)-N-[(3-fluoropyridin-2-yl)methyl]-1H-1,2,3-triazole-4-carboxamide], 5.30 to 6.30.

As to `O=C(Cc1ccccn1)Nc1cn(CC(F)CCn2cc(C(=O)NCc3ccccn3)nn2)nn1` (stereo not drawn) [Example 362, 1-(3-fluoro-4-{4-[2-(pyridin-2-yl)acetamido]-1H-1,2,3-triazol-1-yl}butyl)-N-(pyridin-2-ylmethyl)-1H-1,2,3-triazole-4-carboxamide], the pIC50 in test [1] was 5.30 to 6.30.

In the case of `O=C(Cc1ccccn1)Nc1cn(CC(F)CCn2cc(C(=O)NCc3ncccc3F)nn2)nn1` (stereo not drawn) [Example 365, 1-(3-fluoro-4-{4-[2-(pyridin-2-yl)acetamido]-1H-1,2,3-triazol-1-yl}butyl)-N-[(3-fluoropyridin-2-yl)methyl]-1H-1,2,3-triazole-4-carboxamide], the pIC50 in test [1] is 5.30 to 6.30. Turning to `Cc1ccc(CNC(=O)c2cn(CCC(F)Cn3cc(NC(=O)CN4CC(F)C4)nn3)nn2)cn1` (stereo not drawn) [Example 374, 1-(3-fluoro-4-{4-[2-(3-fluoroazetidin-1-yl)acetamido]-1H-1,2,3-triazol-1-yl}butyl)-N-[(6-methylpyridin-3-yl)methyl]-1H-1,2,3-triazole-4-carboxamide], the pIC50 in test [1] was 6.30 to 7.00.

Usually pEC50 stands for the negative decadic logarithm of the EC50, by convention in mol/L. The low end stands for a high EC50, the high end for a low EC50. In general, pIC50 refers to the negative decadic logarithm of the IC50, by convention in mol/L.

The values above are taken from patent US10344025B2, “GLS1 inhibitors for treating disease” (Board of Regents, The University of Texas System, priority 2014, dated 2019).
